Data: patent US10578608B1, “Tools to detect, track and target cancer cells in vivo” (The Regents of the University of California, priority 2015, dated 2020)
k = constrained ethyl (cEt); d = 2'-deoxy (DNA)

Assays:
[1] = tested on: MIA PaCa-2 tumors; experiment: In vivo growth of MIA PaCa-2 flank tumors with intratumoral ASO; parameters: species or system mouse; conditions: intratumoral delivery, four weeks (5 days on and 2 days off), NSG mice
Excerpt: Although ASOs have been used to inhibit gene expression in a variety of tissues (Carroll, J. B. et al. Potent and Selective Antisense Oligonucleotides Targeting Single-Nucleotide Polymorphisms in the Huntington Disease Gene/Allele-Specific Silencing of Mutant Huntingtin. Molecular Therapy 19, 2178-2185 (2009); Hung, G. et al. Characterization of Target mRNA Reduction Through In SituRNA Hybridization in Multiple Organ Systems Following Systemic Antisense Treatment in Animals. Nucleic Acid Therapeutics 23, 369-378 (2013); Rigo, F. et al. Pharmacology of a central nervous system delivered 2′-O-methoxyethyl-modified survival of motor neuron splicing oligonucleotide in mice and nonhuman primates. Journal of Pharmacology and Experimental Therapeutics 350, 46-55 (2014)), whether pancreatic cancer cells can take up ASOs was not known. […] Functionally MSI1 ASOs led to a marked reduction in colony numbers as well as in colony size, with a cumulative reduction of ˜2.5 fold in total growth (FIG. 4I). To test the impact of ASO mediated MSI1 inhibition in vivo, human pancreatic cancer cells were transplanted until growth was measurable. Subsequently, MSI1 inhibitors were delivered intratumorally for a period of four weeks (5 days on and 2 days off) and tumor growth monitored. […] KP^f/fC pancreatic tumor cells were isolated, transplanted and monitored until measurable growth (30 mm^3). […]

[2] = tested on: MSI1 RNA; experiment: MSI1 expression after ASO free uptake (q-RT-PCR); type: cell-based, human; conditions: 24 hours, MIA PaCa-2 cells
Description: (FIG. 8 F to FIG. 8H) Real time PCR analysis of Msi expression following ASO free uptake in MIA PaCa-2 cells. MIA PaCa-2 cells were treated with 2 Gen 2.5 cEt ASOx target MSI1 or Control Gen 2.5 ASO for 24 hours, RNA was isolated and target knockdown (MSI1 RNA level) was determined by q-RT-PCR. IC50 values for each ASO were calculated using GraphPad Prism software; each treatment condition was performed in triplicate. (FIG. 8I) Colony formation assay in MSI1 ASO-treated MIA PaCa-2 cells after weekly delivery of control or MSI1 ASOs; colonies were counted after 4 weeks; n=3 for each ASO tested. (FIG. 8J) In vivo tracking of tumor volume in MSI1 ASO treated MIA PaCa-2 tumors with intratumoral delivery of control or MSI1 ASOs every day for 5 days followed by 2 days off; n=5 for each ASO tested. Nonlinear regression was used to determine the difference in slope between Control ASO and MSI1-ASO-1 (p<0.001). (FIG. 8K) In vivo tracking of tumor volume of primary KP^f/fC tumors with intratumoral delivery of control ASO or MSI1 ASOs following tumor establishment (n=4). […]
To identify human Msi ASO inhibitors, rapid throughput screens were performed to identify effective ASOs as previously described (Wang, J. C. Y. & Dick, J. E. Cancer stem cells: lessons from leukemia. Trends in Cell Biology 15, 494-501 (2005); Reya, T., Morrison, S. J., Clarke, M. F. & Weissman, I. L. Stem cells, cancer, and cancer stem cells. Nature 414(6859):105-11 (2001); Carroll, J. B. et al. Potent and Selective Antisense Oligonucleotides Targeting Single-Nucleotide Polymorphisms in the Huntington Disease Gene/Allele-Specific Silencing of Mutant Huntingtin. Molecular Therapy 19, 2178-2185 (2009); Samuel, V. T. et al. Targeting foxo1 in mice using antisense oligonucleotide improves hepatic and peripheral insulin action. […] Gene expression was assessed with taqman probes for MSI1 and MSI2. […] Colonies were counted 21 days after the first ASO treatment. […] Tumor measurements were recorded every 3 days. […]

Substance: 5′-ATATGATACAGGACGG-3′ (sugars from the 5' end k3 d10 k3, backbone and methylation of C not given here) [ASO-1]
- Tumor growth of human pancreatic cancer cell line derived tumors [1]: significant reduction in the rate of tumor growth
- MSI1 expression in cell lines after ASO treatment [2]: inhibited MSI1 expression
